Data set [1] deals with aryl hydrocarbon receptor (AHR). The following applies: 2,3,7,8-TCDD set to 1; cited from earlier work.
The conditions of data set [2]: cited from earlier work.
Data set [3] relates to dioxin-response elements (DREs)-luciferase in Hepa1c1c7-M4P2 cells. Briefly: luciferase light intensity bioassay in transfected cell line Hepa1c1c7-M4P2. It counts as cell-based, mouse. Here is the method:
(§1) The transfected cells (4×10^5 cells/well) were placed in a 24 well-culture plate. To each well was added 1 mL of culture medium (DMEM+10% FBS). Thereafter, the culture plate was placed in a constant-temperature incubator set at 37° C. and 5% CO2 for two hours to permit cell adhesion.
(§2) The Dioxin (2,3,7,8-TCDD) stock solution with a concentration of 10 μg/mL was subjected to 10-fold serial dilution. 3.22 μl of each diluted solution was taken and added to each well of the culture plate, such that the final concentrations of dioxin in the experimental groups are 10 nM, 1 nM, 100 pM, […], 10 pM, 1 pM and 0.1 pM, respectively. Each experimental group was prepared in quadruplicate. The normal control group was not subjected to any treatment, whereas the solvent control group was treated using 3.22 μl of DMSO. […]
(§3) 100 μl of the lysate obtained in each group was taken and added to each well of a non-transparent 96-well plate, followed by addition of 50 μl of luciferin (which is included in the Luciferase Assay System, (Cat#1500), Promega Cooperation). Finally, the plate was sent to a Beckman coulter DU640B spectrophotometer (set at PMT:1100; read length:0.5; and Gain:1˜100) for automatic detection of the light intensity within 20 seconds. The experimental results thus obtained were analyzed and plotted using statistical analysis, so as to determine whether the results have statistic significance. […]

In data set [4] the test system is dioxin-response elements (DREs)-luciferase in Hepa1c1c7-MP cells. Briefly: luciferase light intensity bioassay in transfected cell line Hepa1c1c7-MP. Type of data set: cell-based, mouse. Here is the method:
as §1, §2, §3

Setting [5] is: 100 pM 2,3,7,8-TCDD, 5, 10, 15 and 20 hours tested.

The text below walks through data of US20050277142A1, “Recombinant cell line for the detection of dioxin-like compounds based on the expression of luciferase gene” (priority 2004, published 2005).

As for `Clc1cc2oc3cc(Cl)c(Cl)c(Cl)c3c2c(Cl)c1Cl` [1,2,3,7,8,9-HxCDF], in data set [1], the I-TEF was 0.1.

For the compound “2,3,7,8-tetrachloro-dibenzo-p-dioxin [2,3,7,8-TCDD]”, the water solubility in data set [2] is 0.0193 ng/mL. As to `Clc1cc2c(c(Cl)c1Cl)Oc1c(cc(Cl)c(Cl)c1Cl)O2` [1,2,3,7,8,9-HxCDD], in data set [1], the I-TEF is on record as 0.1. As for `Clc1cc2c(c(Cl)c1Cl)Oc1cc(Cl)c(Cl)c(Cl)c1O2` [1,2,3,6,7,8-HxCDD], the I-TEF in data set [1] is given as 0.1.

In the case of `Clc1cc2c(c(Cl)c1Cl)Oc1c(Cl)c(Cl)c(Cl)c(Cl)c1O2` [1,2,3,4,6,7,8-HpCDD], in data set [1], the I-TEF was 0.01.

With `Clc1cc2oc3cc(Cl)c(Cl)c(Cl)c3c2cc1Cl` [1,2,3,7,8-PeCDF], in data set [1], the I-TEF is on record as 0.05.

Regarding `Clc1cc2c(oc3cc(Cl)c(Cl)c(Cl)c32)c(Cl)c1Cl` [1,2,3,6,7,8-HxCDF], in data set [1], the I-TEF is on record as 0.1. As for `Clc1cc2oc3c(Cl)c(Cl)c(Cl)c(Cl)c3c2c(Cl)c1Cl` [1,2,3,4,7,8,9-HpCDF], in data set [1], the I-TEF was 0.01. Turning to `Clc1cc2c(cc1Cl)Oc1cc(Cl)c(Cl)cc1O2` [2,3,7,8-TCDD, 2,3,7,8-tetrachloro-dibenzo-p-dioxin], the “dioxin treatment time giving the most stable and the optimal light intensity result” value in data set [3] (setting [5]) worked out at 15 h; in data set [4] (setting [5]) it was 20 h. Further, the “lowest limit of dioxin detection (obvious light intensity changes vs controls)” value in data set [3] (15 hours treatment) is 5 pM. Also, the I-TEF in data set [1] is 1. For the same compound, the “lowest limit of dioxin detection (significant light intensity changes vs controls)” value in data set [4] (15 hours treatment) is recorded as 5 pM. Take `Clc1cc2c(cc1Cl)Oc1c(cc(Cl)c(Cl)c1Cl)O2` [1,2,3,7,8-PeCDD]: the I-TEF in data set [1] was 0.5.

For `Clc1cc2c(oc3c(Cl)c(Cl)c(Cl)cc32)c(Cl)c1Cl` [2,3,4,6,7,8-HxCDF], in data set [1], the I-TEF is reported as 0.1. As for `Clc1c(Cl)c(Cl)c2c(oc3c(Cl)c(Cl)c(Cl)c(Cl)c32)c1Cl` [OCDF], the I-TEF in data set [1] is on record as 0.001. With `Clc1cc2oc3cc(Cl)c(Cl)cc3c2cc1Cl` [2,3,7,8-TCDF], the I-TEF in data set [1] is 0.1.

Take `Clc1c(Cl)c(Cl)c2c(c1Cl)Oc1c(Cl)c(Cl)c(Cl)c(Cl)c1O2` [OCDD]: the I-TEF in data set [1] is given as 0.001.

As for `Clc1cc2c(oc3c(Cl)c(Cl)c(Cl)c(Cl)c32)c(Cl)c1Cl` [1,2,3,4,6,7,8-HpCDF], the I-TEF in data set [1] was 0.01.

For `Clc1cc2oc3c(Cl)c(Cl)c(Cl)c(Cl)c3c2cc1Cl` [1,2,3,4,7,8-HxCDF], the I-TEF in data set [1] is listed as 0.1. On to `Clc1cc2c(cc1Cl)Oc1c(Cl)c(Cl)c(Cl)c(Cl)c1O2` [1,2,3,4,7,8-HxCDD], for which, in data set [1], the I-TEF is 0.1.
